Assay results taken from paper PMC6078987, “Molecular insights into antibiotic resistance - how a binding protein traps albicidin” (Nature Communications, 2018).
Values joined by “and” are separate entries in the source; they are usually repeats but may differ in a detail not shown here. Equal entries are not always repeated. “Also recorded” adds a separate entry of the source.

Legend:
AlbAS [1] = molecular target: T1, AlbAS (Klebsiella oxytoca, UniProt Q8KRS7); assay: 1H-15N HSQC NMR binding assay; conditions: 15N-labeled AlbAS, 1.5-fold excess of ligand
T1 sequence (Q8KRS7 1-221): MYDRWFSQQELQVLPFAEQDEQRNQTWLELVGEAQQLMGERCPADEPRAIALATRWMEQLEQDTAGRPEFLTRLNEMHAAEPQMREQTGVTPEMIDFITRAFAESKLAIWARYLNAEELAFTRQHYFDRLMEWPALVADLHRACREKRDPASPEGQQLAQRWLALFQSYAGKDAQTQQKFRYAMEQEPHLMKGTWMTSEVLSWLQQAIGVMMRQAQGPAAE
Procedure: For binding studies with albicidin and its derivatives, each ligand was dissolved in 100% d6-DMSO and added to ^15N-labeled AlbAS or ^2H, ^15N-labeled AlbAL in 50 mM sodium hydrogen phosphate (pH 6.8), 150 mM NaCl buffer (usually 0.24 mM AlbAS or AlbAL in 85% buffer, 5% d6-DMSO, and 10% D2O) yielding a 1.5-fold excess of the ligand. After incubation for 20 min at room temperature in the dark, the sample was centrifuged at 20 000 × g for 3 min and the supernatant was transferred to a 5 mm NMR tube. The AlbAS blank sample (Supplementary Figure 14) was measured in 100% buffer without addition of ligands and DMSO. Spectra were recorded on a Bruker Avance III 700 MHz NMR spectrometer (Bruker BioSpin, Rheinstetten, Germany) with a TXI probe head. Standard Bruker pulse sequences were used. 2D ^1H-^15N HSQC spectra were recorded at 298 K with acquisition times of 90 and 22 ms for the ^1H and ^15N dimension, respectively. The experiments were accumulated with ≥16 scans depending on protein sample concentration. 2D ^1H-^15N TROSY spectra were accumulated with 256 scans and acquisition times of 90 and 22 ms for the ^1H and ^15N dimension, respectively. Several AlbAS–albicidin samples were measured with the same result and a representative spectrum is given for the figures in the main manuscript and the SI. NMR experiments with AlbAS and albicidin analogs were conducted once with accumulation of ≥16 scans depending on protein concentration. For alignment of HSQC and TROSY spectra, the TROSY spectrum was corrected by 1/2 ^1JNH in both dimensions. […]

E. coli DH5α = assay: Agar diffusion assay; format: cell-based; conditions: for antibacterial activity in agar diffusion assay: 40 µM compound, E. coli DH5α, 18 h 37 °C; for neutralization of antibacterial activity by AlbAS: 40 µM compound pre-incubated with 40 µM AlbAS
Procedure: To verify the neutralizing ability of AlbAS, AlbAL, AlbASM, AlbASCTD, or AlbASNTD against different compounds, agar diffusion assays with the respective compounds were performed. An overnight culture of E. coli DH5α was diluted to an OD600 of 0.05 with 0.75% LB-agar. The protein-albicidin reaction mixture consisted of a 1:1 mixture of 40 μM albicidin (or derivatives) with 40 μM protein (either AlbAS or its variants AlbAL, AlbASM, AlbASNTD, and AlbASCTD). The mixture was incubated for 20 min at room temperature in the dark. Reaction mixtures of 30 μL were transferred in triplicates of 2 mm holes on the inoculated agar plate. The plates were evaluated concerning growth-inhibition zone after incubation for 18 h at 37 °C.

AlbAS [2] = molecular target: T1, AlbAS; assay: Fluorescence quenching binding assay (tryptophan fluorescence) with AlbAS; conditions: for Kd: AlbAS 20 nM, fluorescence quenching, pH 6.8
Procedure: Fluorescence quenching measurements were performed by monitoring tryptophan fluorescence of AlbAS (20 nM), AlbAL (20 nM), AlbASNTD, and AlbASCTD (100 nM) on a FluoroMax 2 spectrometer from Horiba (Potsdam, Germany). The excitation wavelength was set to λexc = 280 nm. Emission spectra were recorded from λem = 290–450 nm with a scanning speed of 1 nm s^−1 and an integration time of 1 s. The excitation and emission slit widths were set to 8 and 4 nm, respectively. Proteins were solved in 50 mM sodium phosphate buffer with 150 mM NaCl and 0.01% DMSO at pH 6.8. All measurements were performed twice and the standard deviation is given for the Kd and the Hill factor n. Data evaluation was performed by integration of the emission band (318–410 nm for AlbAS, 316–412 nm for AlbAL, and 319–390 nm for AlbASNTD and AlbASCTD) for every titration step. The area under the curve (AUC) of the buffer blank (buffer with 0.01% DMSO) was subtracted from the measured titration data. The quenching factor was determined by subtraction of AUCs for each titration step from the AUC of the protein in the absence of ligand. For determination of the AlbAS– and AlbAL–albicidin Kd values, the data were fitted to Eq. (2).2 Y=Bmax[L]^n/Kdn+[L]^n where [L], n, and Bmax denote the total ligand concentration, the Hill coefficient, and the maximum binding capacity of the protein, respectively.
For the determination of the Kd for AlbAS–compound 7 the data were fitted to Eq. (3).3 Y=Pt+L+Kd-Pt+L+Kd^2-4PtL/2 where Pt is the total protein concentration.

In the case of `COc1c(NC(=O)c2ccc(NC(=O)[C@H](CC#N)NC(=O)c3ccc(N)cc3)cc2)ccc(C(=O)O)c1O` [compound 6], the “binding to AlbAS by HSQC signal pattern (in words)” value (from here on “binding to AlbAS”) (AlbAS [1]) is reported as “slow-exchange regime (strong binding)” and the “antibacterial activity in agar diffusion assay” value (E. coli DH5α) is reported as “did not display antibacterial activity”.
`COC(C(N)=O)C(NC(=O)c1ccc(NC(=O)c2ccc([N+](=O)[O-])cc2)cc1)C(=O)Nc1ccc(C(=O)Nc2ccc(C(=O)Nc3ccc(C(=O)O)cc3OC(C)C)cc2OC(C)C)cc1` (centres unmarked) [compound 7] was tested, and the “binding to AlbAS” value (AlbAS [1]) was “strong binding of compound 7 in the nanomolar Kd range”, the Kd (AlbAS [2]) was 14 ± 2.9 nM and the “neutralization of antibacterial activity by AlbAS” value (“neutralization” below) (E. coli DH5α) was “able to neutralize the antibacterial effects of compound 7, albeit with decreased efficiency”.
In the case of `COc1c(NC(=O)c2ccc(NC(=O)c3ccc(NC(=O)[C@@H](NC(=O)c4ccc(NC(=O)c5ccc(O)cc5)cc4)[C@@H](C)O)cc3)c(OC)c2O)ccc(C(=O)O)c1O` [compound 2], the “binding to AlbAS” value (AlbAS [1]) is reported as “characteristic HSQC signal pattern as in the case of albicidin binding; also recorded: no significant effect on AlbAS binding”, the “neutralization” value (E. coli DH5α) is reported as “confirmed binding” and the “antibacterial activity in agar diffusion assay” value (E. coli DH5α) is reported as “strongly antibacterial”.
For `COc1c(NC(=O)c2ccc(NC(=O)c3ccc(NC(=O)[C@H](CC#N)NC(=O)c4ccc(NC(=O)/C(C)=C/c5ccc(F)cc5)cc4)cc3)c(OC)c2O)ccc(C(=O)O)c1O` [compound 1], the “neutralization” value (E. coli DH5α) was “abolished the antibacterial activity”.
In the case of `C/C(=C\c1ccc(O)cc1)C(=O)Nc1ccc(C(=O)O)cc1` [compound 4], the “binding to AlbAS” value (AlbAS [1]) is reported as “weak binding”, the “effect on fluorescence emission of AlbAS (in words)” value (AlbAS [2]; AlbAS 20 nM titrated with compound) is reported as “did not lead to significant quenching; also recorded: no consistent effect on fluorescence emission spectra” and the “antibacterial activity in agar diffusion assay” value (E. coli DH5α) is reported as “did not display antibacterial activity”.
`COc1c(NC(=O)c2ccc(NC(=O)c3ccc(NC(=O)[C@@H](CC#N)NC(=O)c4ccc(NC(=O)/C(C)=C/c5ccc(O)cc5)cc4)cc3)c(OC)c2O)ccc(C(=O)O)c1O` [compound 3] was tested, and the “binding to AlbAS” value (AlbAS [1]) was “still able to bind; also recorded: binding mode equivalent to that of albicidin” and the “neutralization” value (E. coli DH5α) was “prohibit its antibacterial effects; also recorded: neutralizing effect”.
In the case of `COc1c(NC(=O)c2ccc(NC(=O)c3ccc(N)cc3)c(OC)c2O)ccc(C(=O)O)c1O` [compound 5], the “binding to AlbAS” value (AlbAS [1]) is reported as “slow-exchange regime (strong binding)”, the Kd (AlbAS [2]) is reported as ~55.5 nM and 55.5 nM and the “antibacterial activity in agar diffusion assay” value (E. coli DH5α) is reported as “did not display antibacterial activity”.
